Assay results from patent EP0738149B1 (priority 1994, dated 1995).
Where two headings read alike, the source gives them in different places.

Legend:
[1] = system: mechanically dissociated neonatal rat cerebellum; test: Enhancement of cell survival in cultures of neonatal rat cerebellum (no NMDA); format: cell-based; settings: 24 hours after addition, percentage of the number of control cells on the fourth day
Method: The cerebellum was aseptically dissociated from 6 or 7-day old rat pups and placed in a 15ml sterile plastic conical tube containing 3ml of Dulbecco's modified Eagle's medium (DMEM) with a high glucose concentration ([…]) and 2mM (v/v) L-glutamine and an antibiotic antimitotic mixture. The cerebella were then dissociated after 20-25 passages through a sterile 13 gauge, 10cm long stainless steel needle attached to a 5ml syringe with an inserted 45 micrometer pore nylon sieve. The dissociated cells were centrifuged at 200g for 5 minutes. […] Cell viability was determined by the tryptan blue exclusion test.
Cells were plated at a density of 200/mm^2 on poly-L-lysine coated surfaces. Poly-L-lysine coated glass coverslips were prepared at least one hour in advance of plating by immersing sterile coverslips in sterile distilled water solution containing 15 microgram/ml poly-L-lysine, and washing in sterile water just prior to use. […] After three days in culture, the media was replaced with media containing the desired test compound. Each test compound was tested in duplicate. Toxic-dose response was determined for each compound.
Cell cultures were grown as described above but in the absence of NMDA and after 3 days a dose of test compound was added. Cell survival was monitored as described above.

rats [2] = test: Electrically kindled rat model of epilepsy, p.o.; format: in vivo; settings: po, read-out: ED50 (prevented seizures)
Description: The rat electrical kindling model of epilepsy has been known to show efficacy of antiepileptic agents against complex partial seizures that evolve into generalized motor seizures. In these tests, rats were electrically stimulated via corneal electrodes twice daily for approximately 5 days and then once daily for an additional 10 days. Once the seizure criteria, as described by R.J. Racine, et al., Electroenceph. Clin. Neurophysiol. 32: 281-294 (1972), were met, the test substance was administered p.o. to rats, and the rat electrically stimulated, and observed for the presence or absence of a seizure.

mice [3] = test: Maximal electroshock (MES) model in mice, i.p.;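 note: Electroshock-induced convulsion model serving to demonstrate antiepileptic efficacy against generalized and partial seizures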; format: in vivo; settings: Mus musculus, ip, Table 15
mice [4] = settings: Mus musculus, ip, read-out: MICE scMet ED50, mice, i.p.; Table 16
rats [5] = test: Closed head injury in rats: brain oedema (water content), Experiments 4A-4E; format: in vivo; settings: Exp 4A; relative to normal brain water content of 78.5 %
Method: After the second evaluation of motor function, the animals were sacrificed and the brains were removed. A piece of tissue was weighed to yield a wet weight(WW), then dried in an oven for 24 hours at 95C and re-weighed to yield a dry weight(DW). Percentage water content in the tissue was calculated as (WW-DW)x100/WW.

hypoxic rat = test: α-MpT-induced hypokinesia in hypoxic rat (locomotor activity), Experiments 1A-1C; format: in vivo; settings: Mean ± SEM
Method: Experiment 1A. Wistar male rats, 15-19 month-old, were exposed to a single hypoxic episode which is assumed to decrease the level of dopamine in the brain. […] The drugs were administered by gavage, using a special syringe equipped with rounded tip that could be directed into the stomach. The dose was contained in 0.3-0.5 mL of distilled water. The rats were pretreated for 70-80 days with daily doses of the test drugs and received intra-peritoneal (i.p.) α-MpT (α-methyl-p-tyrosine) at a dose of 100mg/kg in 0.3-0.5 mL saline. Controls received saline. α-MpT is assumed to inhibit the formation of L-Dopa from tyrosine and, consequently the formation of dopamine itself. Lack of central dopamine is expressed as hypokinesia. Following the injection of α-MpT, motor activity was recorded for the duration of 10 hours. Locomotion scores were taken in seven fully-computerized cages (26x25cm) having a grid of infra-red beams at 4 cm-intervals. Crossing of a beam initiated an electric signal which was fed into a computer. The number of crossings over a given period provided a measure of locomotion. The records gave two data categories: (a) "small movements" originating in stationary activities such as grooming and scratching and (b) "big movements" originating in ambulation and recorded as the simultaneous crossing of more than two beams."Total movements" include both categories. Counts of motor activity in the presence of α-MpT were related as percent with respect to counts in its absence in the corresponding control group (unlesioned or hypoxia-lesioned). Motor activity counts of drug-treated rats were related to the hypoxia saline-treated as 100%. All behavioral tests were performed 90-120 min. after administration of the last dose of the test compound.
Experiment 1B. […] The drugs were given i.p. • (3) Duration of the treatment: 21 days. • (4) Dose of α-MpT: 70 mg/Kg.

[6] = Exp 1A, 0.5mg/kg/Day gavage 70-80 days, α-MpT 100mg/kg i.p., Hour 1
[7] = Exp 1A, 0.5mg/kg/Day gavage 70-80 days, α-MpT 100mg/kg i.p., Hour 2
[8] = Exp 1A, 0.5mg/kg/Day gavage 70-80 days, α-MpT 100mg/kg i.p., Hour 3
[9] = Exp 1A, 0.5mg/kg/Day gavage 70-80 days, α-MpT 100mg/kg i.p., Hour 4
[10] = Exp 1A, 0.5mg/kg/Day gavage 70-80 days, α-MpT 100mg/kg i.p., Hour 5
[11] = Exp 1A, 0.5mg/kg/Day gavage 70-80 days, α-MpT 100mg/kg i.p., Hour 7
[12] = Exp 1A, 0.5mg/kg/Day gavage 70-80 days, α-MpT 100mg/kg i.p., Hour 8
[13] = Exp 1A, 0.5mg/kg/Day gavage 70-80 days, α-MpT 100mg/kg i.p., Hour 9
[14] = Exp 1A, 0.5mg/kg/Day gavage 70-80 days, α-MpT 100mg/kg i.p., Hour 10
[15] = Exp 1B, 0.3 mg/Kg daily i.p. 21 days, α-MpT 70 mg/Kg, Hour 1
[16] = Exp 1B, 0.3 mg/Kg daily i.p. 21 days, α-MpT 70 mg/Kg, Hour 2
[17] = Exp 1B, 0.3 mg/Kg daily i.p. 21 days, α-MpT 70 mg/Kg, Hour 3
[18] = Exp 1B, 0.3 mg/Kg daily i.p. 21 days, α-MpT 70 mg/Kg, Hour 4
[19] = Exp 1B, 0.3 mg/Kg daily i.p. 21 days, α-MpT 70 mg/Kg, Hour 5
[20] = Exp 1B, 0.3 mg/Kg daily i.p. 21 days, α-MpT 70 mg/Kg, Hour 6
[21] = Exp 1B, 0.3 mg/Kg daily i.p. 21 days, α-MpT 70 mg/Kg, Hour 7
[22] = Exp 1B, 0.3 mg/Kg daily i.p. 21 days, α-MpT 70 mg/Kg, Hour 8
[23] = Exp 1B, 0.3 mg/Kg daily i.p. 21 days, α-MpT 70 mg/Kg, Hour 9
[24] = Exp 1B, 0.3 mg/Kg daily i.p. 21 days, α-MpT 70 mg/Kg, Hour 10

For `CC(=O)N[C@@H]1CCc2ccccc21` [Example 18, (R)-N-Acetyl-1-aminoindan], the “% ENHANCED SURVIVAL” value ([1]; 0.01 µM) was 145%, the “% ENHANCED SURVIVAL” value ([1]; 0.10 µM) was 130% and the “% ENHANCED SURVIVAL” value ([1]; 1.00 µM) was 126%. The ED50 (rats [2]) was 24.6 mg/kg, the ED50 (mice [3]) was 31 mg/kg and the ED50 (mice [4]) was 66 mg/kg.

`N[C@@H]1CCc2ccccc21` [R-AI, (R)-1-aminoindan] was tested, and the “reduction in trauma-induced oedema” value (rats [5]) was 50%.

With `C#CCN(C)[C@H](C)Cc1ccccc1` [deprenyl] the “Locomotor activity after α-MpT treatment, recorded as big movements” value (from here on “Locomotor activity … as big movements”) (hypoxic rat; [6]) was 61 ± 15%, the “Locomotor activity after α-MpT treatment, recorded as total movements” value (shortened to “Locomotor activity … as total movements”) (hypoxic rat; [6]) was 88 ± 23% and the “Locomotor activity … as big movements” value (hypoxic rat; [7]) was 103 ± 22%. The “Locomotor activity … as total movements” value (hypoxic rat; [7]) was 131 ± 30%, the “Locomotor activity … as big movements” value (hypoxic rat; [8]) was 184 ± 39% and the “Locomotor activity … as total movements” value (hypoxic rat; [8]) was 141 ± 26%. For the same compound, the “Locomotor activity … as big movements” value (hypoxic rat; [9]) was 85 ± 34%, the “Locomotor activity … as total movements” value (hypoxic rat; [9]) was 191 ± 45% and the “Locomotor activity … as big movements” value (hypoxic rat; [10]) was 171 ± 61%. For the same compound, the “Locomotor activity … as total movements” value (hypoxic rat; [10]) was 229 ± 40%, the “Locomotor activity … as big movements” value (hypoxic rat; Exp 1A, 0.5mg/kg/Day gavage 70-80 days, α-MpT 100mg/kg i.p., Hour 6) was 65 ± 17% and the “Locomotor activity … as big movements” value (hypoxic rat; [11]) was 96 ± 29%. The “Locomotor activity … as total movements” value (hypoxic rat; [11]) was 204 ± 7%, the “Locomotor activity … as big movements” value (hypoxic rat; [12]) was 91 ± 40% and the “Locomotor activity … as total movements” value (hypoxic rat; [12]) was 131 ± 23%. The “Locomotor activity … as big movements” value (hypoxic rat; [13]) was 84 ± 23%, the “Locomotor activity … as total movements” value (hypoxic rat; [13]) was 137 ± 21% and the “Locomotor activity … as big movements” value (hypoxic rat; [14]) was 29 ± 10%. The “Locomotor activity … as total movements” value (hypoxic rat; [14]) was 116 ± 22%, the “Locomotor activity … as big movements” value (hypoxic rat; [15]) was 70 ± 10% and the “Locomotor activity … as total movements” value (hypoxic rat; [15]) was 68 ± 9%. The “Locomotor activity … as big movements” value (hypoxic rat; [16]) was 91 ± 19%, the “Locomotor activity … as total movements” value (hypoxic rat; [16]) was 95 ± 11% and the “Locomotor activity … as big movements” value (hypoxic rat; [17]) was 85 ± 19%. The “Locomotor activity … as total movements” value (hypoxic rat; [17]) was 126 ± 22%, the “Locomotor activity … as big movements” value (hypoxic rat; [18]) was 88 ± 23% and the “Locomotor activity … as total movements” value (hypoxic rat; [18]) was 118 ± 20%. The “Locomotor activity … as big movements” value (hypoxic rat; [19]) was 87 ± 11%, the “Locomotor activity … as total movements” value (hypoxic rat; [19]) was 83 ± 24% and the “Locomotor activity … as big movements” value (hypoxic rat; [20]) was 67 ± 8%. For the same compound, the “Locomotor activity … as total movements” value (hypoxic rat; [20]) was 78 ± 9%, the “Locomotor activity … as big movements” value (hypoxic rat; [21]) was 62 ± 9% and the “Locomotor activity … as total movements” value (hypoxic rat; [21]) was 56 ± 7%. For the same compound, the “Locomotor activity … as big movements” value (hypoxic rat; [22]) was 70 ± 9%, the “Locomotor activity … as total movements” value (hypoxic rat; [22]) was 85 ± 13% and the “Locomotor activity … as big movements” value (hypoxic rat; [23]) was 132 ± 24%. The “Locomotor activity … as total movements” value (hypoxic rat; [23]) was 111 ± 12%, the “Locomotor activity … as big movements” value (hypoxic rat; [24]) was 54 ± 13% and the “Locomotor activity … as total movements” value (hypoxic rat; [24]) was 61 ± 12%.
